Assay results as given in US20180246105A1, “IMMUNOLOGICAL TEST KIT FOR […] EFFICACY AND STORAGE METHOD THEREOF” (priority 2015, published 2018).
Entries after “also recorded” stand apart in the source; their conditions may differ.

Legend:
[1] = tested on: HBsAg; settings: after five years of treatment; HBeAg positive CHB patients; cited from earlier work
[2] = tested on: CD8+ T cells; assay: Clinical cellular immune detection (10-day enrichment), CD8+ T cells re-stimulated with HBV-specific peptides; type: in vivo, human
Method: (§1) 7) Cell seeding and peptide stimulation. PBMC was re-suspended with 10% FBS-RPMI-1640 and seeded into 12-well plate with 1mL/well. Specific peptides were added at the same time with 1 μL per well. The plate was then incubated in 5% CO2, 37° C.
(§2) After five days incubation, 50 μL sample was taken from each well and stored at −80° C. Then added 500 ul 10% FBS-RPMI-1640 contained […], continued for another five days incubator.
(§3) 2) Stimulation. After 10 days enrichment, the cells in 12-well plate were transferred into a 1.5 mL EP tube. Centrifuge with 1500 rpm, 3 min. Discard supernatant and re-suspend with FBS-RPMI-1640 prepared in step 1. The suspended cells were then seeded into a 96-well plate, the plate was coated with PMA, N, CMV, S4, S8 and MIX, 90 uL/well with three repetitions. Then the plate was incubated in 5% CO2, 37° C. for 8 hours.
(§4) 3) Storage. After 8 hours incubation, the 96-well plate was set for centrifuge with 1500 rpm, 3 min. Discard supernatant and re-suspend with 200 μL cell freezing medium (10% DMSO with 90% FBS). Disassociation by pipetting 3 to 5 times and sealed with parafilm. And then set for gradient cryopreservation with 4° C. for 1 hour, at −20° C. for 40 min and at −80° C. thereafter.
(§5) 3) Cell surface marker staining Panel 1, CD4-APC; Panel 2, CD8-APC; Panel 3, CD4-FITC. The dose of antibody was as the recommended dose in the reagent manual. Plate was centrifuged with 1500 rpm, 3 min. Discard supernatant and re-suspend with staining buffer in 4° C. for 30 min.
6) Intracellular staining. […]
8) FACS detection. […] The result data was analyzed with FlowJo v7.6.3, and the results were shown as positive percentage.
Antigen specific cellular immunity may play an important role in chronic HBV treatment. […] After the cell was collected and re-stimulated by HBV-specific polypeptide for 8 hours, the levels of cytokines in CD4+ and CD8^+ T lymphocytes were detected by flow cytometry. IL-2, IL-4, IL-10, IL-17a, Foxp3, IFN-γ and TNF-α were analyzed in CD4^+ T cells, whereas IL-2, IL-17a, IFN-γ and TNF-α were analyzed in CD8^+ T lymphocyte.

[3] = tested on: T cell subsets (Th1, Th2, Th17, Treg, Tc1, Tc17); assay: T-lymphocyte subset proportions and subset ratios during treatment; type: in vivo, human
Source text: From the previous results, a T cell responds heterogeneously. In order to intuitively understand the dynamic changes of different T cell subsets, IFN-γ^+ CD4^+ T cells were assigned into the Th1, IL-4^+ CD4^+ T cells as TH2, IL-17a producing CD4^+ T cells as TH17, Foxp3^+CD4^+ T cells Treg, and the CD8^+ T cells secreting different cytokines were classified as TC1 and […] by the same method.
In order to further obtain the effect of different therapies on cellular immunity, the TH1/Treg, Th2/Treg, Th17/Treg, and Th1/th2 was analyzed and plotted.

[4] = tested on: CD4+ T cells; assay: Clinical cellular immune detection (10-day enrichment), CD4+ T cells re-stimulated with HBV-specific peptides; type: in vivo, human
Method: as §1, §2, §3, §4, §5
6) Intracellular staining. Panel 1/Panel 2, IFN-g-PE, TNF-α-BV421, IL-17-APC/cy7, IL-2-FITC; Panel 3, FOXP3-APC, IL-4-BV421, IL-10-PE. The dose of antibody was at the recommended dose in the reagent manual. Re-suspend the cells with staining buffer in room temperature for 1.5 hour with shake.
8) FACS detection. The detection was conducted with BD LSR Fortessa (BD Bioscience, USA). The voltage and compensation may be well adjusted. The result data was analyzed with FlowJo v7.6.3, and the results were shown as positive percentage.
Antigen specific cellular immunity may play an important role in chronic HBV treatment. […] Peripheral Blood mononuclear cells (PBMC) were isolated and re-stimulated with HBV-specific polypeptide for 10-day enrichment. After the cell was collected and re-stimulated by HBV-specific polypeptide for 8 hours, the levels of cytokines in CD4+ and CD8^+ T lymphocytes were detected by flow cytometry. IL-2, IL-4, IL-10, IL-17a, Foxp3, IFN-γ and TNF-α were analyzed in CD4^+ T cells, whereas IL-2, IL-17a, IFN-γ and TNF-α were analyzed in CD8^+ T lymphocyte.

[5] = Clinical trial ChiCTR-TRC-13003254: serum ALT kinetics; type: in vivo, human; settings: 48-week treatment and 72-week follow-up
Method: HBV DNA was not detected or the level decreased at least 2 log 10 IU/mL compared with the basement on weeks 12, 24, 36, 48 and 72; The AST and ALT level on weeks 12, 24, 36, 48 and 72; The histological response, with the inflammation and fibrosis should rate under level 1 of the liver on week 48.
Routine biochemistry (liver function, renal function); Blood cell analysis; Serum HBV DNA detection; HBVM detection; All the detection were conducted in the central laboratory of Huashan Hospital.

[6] = 0 to 72 weeks, significant changes at 24th week

| SMILES | patients with HBsAg serotype transformed [1] | IFN-γ secreted by CD8+ T cells, dynamics ([2]; HLA-A2+ or HLA-A2− S polypeptide re-stimulation, 0 to 72 weeks) | IL-17A of CD8+ T cells, dynamics ([2]; S polypeptide pool stimulation) | IL-2 and TNF-α secreted by CD8+ T cells, dynamics ([2]; S polypeptide re-stimulation, course of treatment) | change of TH1, TH2, TH17, TC1 and Tc17 cell proportions ([3]; 0 weeks to 72 weeks) | proportion of Treg cells in total T cell subsets ([3]; 48 weeks) [%] | proportion of Treg cells in total T cell subsets ([3]; 72 weeks, follow-up endpoint) [%] | proportion of Treg cells in total T cell subsets ([3]; baseline) [%] | Foxp3 expression in CD4+ T cells (Treg), dynamics [4, 6] | IL-10 secretion in CD4+ T cells, dynamics [4, 6] | Foxp3 expression in CD4+ T cells (Treg), dynamics ([4]; 0 to 72 weeks, significant changes at 24th week, listed as Adv) | IL-4 in CD4+ T cells, dynamics ([4]; S-polypeptide pool stimulation) | IFN-γ expression in CD4+ T cells, dynamics ([4]; S-polypeptide pool stimulation, 0 to 72 weeks) | IL-2 and TNF-α in CD4+ T cells, dynamics ([4]; S-polypeptide pool stimulation, course of treatment) | IL-17A in CD4+ T cells, dynamics ([4]; peptide pool stimulation, course of treatment) | ALT level, change [5] |
| --- | --- | --- | --- | --- | --- | --- | --- | --- | --- | --- | --- | --- | --- | --- | --- | --- |
| C[C@H](Cn1cnc2c(N)ncnc21)OCP(=O)(O)O [Tenofovir] | 23 of 266 |  |  |  |  |  |  |  |  |  |  |  |  |  |  |  |
| CC(C)(C)C(=O)OCOP(=O)(COCCn1cnc2c(N)ncnc21)OCOC(=O)C(C)(C)C [ADV, Adefovir Dipivoxil] |  | no difference | no significance | No significant difference | no significant changes | 25.8 | 37.8 | 37.7 | not significantly changed; also recorded: no significant fluctuation; also recorded: did not show significant fluctuation | no significant change | did not change significantly; also recorded: did not show significant fluctuation | no difference | no significant difference | no significant difference | no significant change | did not change significantly |
